Test results from patent publication US4759917A, “Oxidative dissolution of gallium arsenide and separation of gallium from arsenic” (priority 1987, dated 1988).

Assay: Viscosity of hydroxamic acids
Format: physicochemical
Conditions: neat, without a solvent
Text: When a liquid hydroxamic acid compound is used, it can be used neat as the organic phase in the oxidation-dissolution reaction and the subsequent extraction-separation. However it will often be preferable to use an organic solvent as an extender, or to lower viscosity or lessen absorption or resulting losses of the hydroxamic acid, or to promote phase separation, and the organic phase often includes a liquid hydrocarbon solvent. Such solvent must be substantially water immiscible so as to be separable from the aqueous solutions containing the arsenic values. Suitable solvents include aliphatic and aromatic hydrocarbons such as kerosene, hexane, toluene, methylene chloride, chloroform, carbon tetrachloride, xylene, naphtha, cyclohexane, Chevron Ion Exchange solvent, Kermac 470-B. Solvesso 100 and the like. Kerosene and other low viscosity, high flash point petrolleum distillates are preferred. Generally, the hydroxamic compounds will be present in the organic phase in an amount of at least about 2% by weight. Preferably, the N-alkyl alkanohydroxamic compound will be present in the amount of 2 to 40%, more preferably about 10 to 35%, by weight based on the total organic phase. Viscosity and/or solubility serves to fix the upper limit of the content of said hydroxamic compound which will depend upon the structure of the compound employed. […]

With N-methyl isostearohydroxamic acid the viscosity was “sufficiently low viscosity that they can be used neat”.
